{"source": "ChEMBL document CHEMBL1133791", "about": "“Intracellular inhibition of human neutrophil elastase by orally active pyrrolidine-trans-lactams” (Bioorg Med Chem Lett, 2001)", "key": {"Neutrophil elastase [1]": {"target": "T1, Neutrophil elastase (Homo sapiens, UniProt P08246)", "T1 sequence (P08246 whole entry)": "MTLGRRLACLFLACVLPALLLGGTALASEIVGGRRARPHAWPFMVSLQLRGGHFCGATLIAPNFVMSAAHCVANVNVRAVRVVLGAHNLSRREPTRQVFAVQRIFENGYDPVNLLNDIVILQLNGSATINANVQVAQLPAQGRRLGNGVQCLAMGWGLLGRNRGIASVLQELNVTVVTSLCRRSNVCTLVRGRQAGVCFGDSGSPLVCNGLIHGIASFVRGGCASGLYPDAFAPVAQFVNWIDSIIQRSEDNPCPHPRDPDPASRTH", "experiment": "In vitro inhibitory activity against human neutrophil elastase (HNE)"}, "Neutrophil elastase [2]": {"target": "T1, Neutrophil elastase", "experiment": "In vitro inhibitory activity in human whole blood (HWB) elastase", "type": "tissue-based"}, "[3]": {"target": "T2, Neutrophil elastase (Homo sapiens) (UniProt P08246)", "T2 sequence (whole entry)": "T1 sequence (P08246 whole entry)", "settings": "Cricetulus griseus; Liver; Microsome; 20 mg/kg", "description": "Compound was evaluated for the inhibition of elastase in hamster liver microsomes at a concentration of 20 mg/kg"}, "Hamster [4]": {"test_system": "Hamster", "experiment": "Plasma clearance after iv administration at 3 mg/kg in hamster", "type": "ADME, organism-based", "parameters": "dose 3 mg/kg, route intravenous", "settings": "cricetinae, in vivo"}, "[5]": {"target": "T2, Neutrophil elastase (Homo sapiens)", "settings": "Cricetulus griseus; Liver; Microsome; 10 mg/kg", "description": "Compound was evaluated for the inhibition of elastase in hamster liver microsomes at a concentration of 10 mg/kg"}, "[6]": {"experiment": "Volume distribution after iv administration at 3 mg/kg in hamster", "type": "ADME, organism-based", "parameters": "dose 3 mg/kg, route intravenous", "settings": "cricetinae, in vivo"}, "[7]": {"experiment": "Bioavailability after po administration of 10 mg/kg in hamster", "type": "ADME, organism-based, Cricetulus griseus", "settings": "chinese hamster, in vivo"}, "[8]": {"experiment": "Half life after iv administration at 3 mg/kg in hamster", "type": "ADME, organism-based", "parameters": "dose 3 mg/kg, route intravenous", "settings": "cricetinae, in vivo"}, "[9]": {"experiment": "Half life after po administration of 10 mg/kg in hamster", "type": "ADME, organism-based", "parameters": "dose 10 mg/kg, route oral", "settings": "cricetinae, in vivo"}, "[10]": {"experiment": "Solubility in water was evaluated.", "type": "physicochemical"}, "[11]": {"experiment": "Half life after iv administration at 4 mg/kg in hamster", "type": "ADME, organism-based", "parameters": "dose 4 mg/kg, route intravenous", "settings": "cricetinae, in vivo"}, "[12]": {"experiment": "Bioavailability after po administration at 4 mg/kg in hamster", "type": "ADME, organism-based, Cricetulus griseus", "settings": "chinese hamster, in vivo"}, "[13]": {"target": "T2, Neutrophil elastase (Homo sapiens)", "experiment": "Compound was evaluated in vivo for the inhibition of elastase in hamster bronchoalveolar lavage (BAL) 6 hour after an intratracheal dose of IL-8 at a concentration 20 mg/kg", "type": "organism-based", "parameters": "dose 20 mg/kg", "settings": "Cricetulus griseus; Lung"}, "[14]": {"target": "T2, Neutrophil elastase (Homo sapiens)", "experiment": "Compound was evaluated in vivo for the inhibition of elastase in hamster bronchoalveolar lavage (BAL) 6 hour after an intratracheal dose of IL-8 at a concentration 10 mg/kg", "type": "organism-based", "parameters": "dose 10 mg/kg", "settings": "Cricetulus griseus; Lung"}, "[15]": {"target": "T2, Neutrophil elastase (Homo sapiens)", "experiment": "Compound was evaluated in vivo for the inhibition of elastase in hamster bronchoalveolar lavage (BAL) 6 hour after an intratracheal dose of IL-8 at a concentration 40 mg/kg", "type": "organism-based", "parameters": "dose 40 mg/kg", "settings": "Cricetulus griseus; Lung"}, "Hamster [16]": {"test_system": "Hamster", "experiment": "Plasma clearance after iv administration at 4 mg/kg in hamster", "type": "ADME, organism-based", "parameters": "dose 4 mg/kg, route intravenous", "settings": "cricetinae, in vivo"}, "[17]": {"experiment": "Volume distribution after iv administration at 4 mg/kg in hamster", "type": "ADME, organism-based", "parameters": "dose 4 mg/kg, route intravenous", "settings": "cricetinae, in vivo"}, "Neutrophil elastase [18]": {"target": "T1, Neutrophil elastase", "experiment": "In vitro inhibitory activity in human whole blood (HWB) elastase at a concentration of 10", "type": "tissue-based"}, "[19]": {"target": "T2, Neutrophil elastase (Homo sapiens)", "experiment": "In vitro inhibition of human whole blood (HWB) elastase at a concentration of 10 uM"}, "[20]": {"target": "T2, Neutrophil elastase (Homo sapiens)", "experiment": "In vitro percent inhibition of human whole blood (HWB) elastase at a concentration of 10 uM except in plasma", "type": "tissue-based"}, "[21]": {"target": "T2, Neutrophil elastase (Homo sapiens)", "experiment": "In vitro inhibition of human whole blood (HWB) elastase at a concentration of 10 uM except in buffer"}}, "note": "Residues, ends and D or L forms follow the SMILES beside them. *: point of attachment. CF3 = FC(F)(F)*; Moc = COC(=O)*"}
{"smiles": "C=CC[C@H]1C(=O)N(C(=O)OCC)[C@H]2CCN(C(=O)OCc3ccccc3)[C@H]12", "values": [{"measurement": "IC50", "setting": "Neutrophil elastase [1]", "value": 2, "unit": "nM"}]}
{"smiles": "C=CC[C@H]1C(=O)N[C@H]2CCN(C(=O)OCc3ccccc3)[C@@H]21", "values": [{"measurement": "IC50", "setting": "Neutrophil elastase [1]", "value": "> 500", "unit": "nM"}]}
{"smiles": "COC(=O)N[C@H](C(=O)N1CCC[C@H]1C(=O)N[C@H](C(=O)C(F)(F)F)C(C)C)C(C)C", "note": "(Moc-Val-Pro-Val-CF3)", "values": [{"measurement": "IC50", "setting": "Neutrophil elastase [2]", "value": "> 10", "unit": "nM"}]}
{"smiles": "CCC[C@H]1C(=O)N(S(C)(=O)=O)[C@H]2CCN(C(=O)CCN3CCCCC3)[C@H]12.Cl", "values": [{"measurement": "inhibition", "setting": "[3]", "value": 76, "unit": "%"}, {"measurement": "Clp", "setting": "Hamster [4]", "value": 140, "unit": "mL/min/kg"}, {"measurement": "inhibition", "setting": "[5]", "value": 41, "unit": "%"}, {"measurement": "Vd", "setting": "[6]", "value": 2.3, "unit": "L/kg"}, {"measurement": "IC50", "setting": "Neutrophil elastase [1]", "value": 140, "unit": "nM"}, {"measurement": "bioavailability", "setting": "[7]", "value": 49, "unit": "%"}, {"measurement": "half-life", "setting": "[8]", "value": 12, "unit": "min"}, {"measurement": "half-life", "setting": "[9]", "value": 30, "unit": "min"}, {"measurement": "solubility", "setting": "[10]", "value": "> 1000", "unit": "µg/mL"}]}
{"smiles": "CCC[C@H]1C(=O)N(S(=O)(=O)c2ccc3ccccc3c2)[C@H]2CCN(C(=O)CCN3CCCCC3)[C@H]12.Cl", "values": [{"measurement": "half-life", "setting": "[11]", "value": 30, "unit": "min"}, {"measurement": "bioavailability", "setting": "[12]", "value": 1, "unit": "%"}, {"measurement": "inhibition", "setting": "[13]", "value": 30, "unit": "%"}, {"measurement": "IC50", "setting": "Neutrophil elastase [1]", "value": 137, "unit": "nM"}, {"measurement": "inhibition", "setting": "[14]", "value": 10, "unit": "%"}, {"measurement": "inhibition", "setting": "[15]", "value": 60, "unit": "%"}, {"measurement": "Clp", "setting": "Hamster [16]", "value": 200, "unit": "mL/min/kg"}, {"measurement": "solubility", "setting": "[10]", "value": "> 1000", "unit": "µg/mL"}, {"measurement": "Vd", "setting": "[17]", "value": 8.1, "unit": "L/kg"}]}
{"smiles": "CCC[C@@H](NC(=O)N1C(=O)C(CC)(CC)[C@@H]1Oc1ccc(C(=O)N2CCN(C)CC2)cc1)c1ccc2c(c1)OCO2", "values": [{"measurement": "IC50", "setting": "Neutrophil elastase [18]", "value": 0.45, "unit": "nM"}]}
{"smiles": "C=CC[C@H]1C(=O)N(CCCCCC)[C@H]2CCN(C(=O)OCc3ccccc3)[C@H]12", "values": [{"measurement": "IC50", "setting": "Neutrophil elastase [1]", "value": 29, "unit": "nM"}]}
{"smiles": "C=CC[C@H]1C(=O)N(S(C)(=O)=O)[C@H]2CCN(C(=O)OCc3ccccc3)[C@H]12", "values": [{"measurement": "inhibition", "setting": "[19]", "value": 98, "unit": "%"}]}
{"smiles": "C=CC[C@H]1C(=O)N(S(=O)(=O)c2ccc3ccccc3c2)[C@H]2CCN(C(=O)OCc3ccccc3)[C@H]12", "values": [{"measurement": "inhibition", "setting": "[20]", "value": 23, "unit": "%"}, {"measurement": "inhibition", "setting": "[21]", "value": 92, "unit": "%"}]}
{"smiles": "C=CC[C@H]1C(=O)N(C(=O)NCC)[C@H]2CCN(C(=O)OCc3ccccc3)[C@H]12", "values": [{"measurement": "IC50", "setting": "Neutrophil elastase [1]", "value": 31, "unit": "nM"}]}
